# Results from patent US4072574A, “System for in vitro assay for mutagenicity and/or carcinogenicity of chemicals or other exogenous agents” (priority 1976, dated 1978).
# Tests used:
# [1] = test system: AMV DNA polymerase; assay: Fidelity of in vitro DNA synthesis (error frequency) with AMV DNA polymerase copying synthetic polynucleotide templates; conditions: for Class: Table 1, classes 1-3 not defined
# From the text: In this invention, the ability of carcinogens to decrease the fidelity of in vitro DNA synthesis will be used to screen for carcinogenic or mutagenic agents. The system uses synthetic polynucleotides of defined composition which may be copied in the test tubes with procaryotic, eucaryotic or viral DNA polymerases. The use of synthetic polynucleotides of defined composition allows the measurement of the simultaneous incorporation of the correct, complementary nucleotide and an incorrect, non-complementary nucleotide. The correct nucleotide is labeled with [α-^32 P] of low specific activity and the incorrect nucleotide is labeled with [^3 H] of high specific activity. Through this double labeled reaction it is possible to determine the simultaneous incorporation of both nucleotides and thus to determine an error frequency. The error frequency may be defined as the ratio of the incorrect/correct nucleotide incorporation. Agents which increase this error frequency may be scored as positive. […] Agents which score positive would be checked using different templates to underscore the positive results. In this system different polymerases will be used as well as different templates. One would expect that most carcinogens would change the fidelity of DNA synthesis with different polymerases as well as with different templates though this need not be the case.
# Each assay will consist of a polymerase, a polynucleotide template that only contains one or two nucleotides, a complementary nucleotide and a non-complementary nucleotide as well as magnesium. Both of the nucleotides will be labeled by radioactive precursors and the ratio between the two is to be used for a measure of error frequency in the system. In instances where a template requires two complementary nucleotides, only one will be radioactively labeled.
# Reactions (total volume 0.05 ml) which measured complementary nucleotide incorporation contained 50 mM Tris-HCL (pH 8.0), 20 mM KCl, 5 mM dithiothreitol, 5 mM MgCl2, 2μg BSA, […] [α-^32 P] -dTTP (60 dpm/pmole), 1μg poly (A).oligo (dT) (1:1.5 mass ratio), and 0.45 μg of AMV DNA polymerase. For simultaneous quantitation of complementary and non-complementary nucleotide incorporation each reaction was modified to contain 26μM [α-^32 P]dTTP (12 dpm/pmole) and 23μM [^3 H]-dCTP (50,000 dpm/pmole). […] Metals were added directly to the reaction mixture as aqueous solutions of chloride salts. All reactions were incubated for 60 min. at 37° C. Incorporation of radioactive nucleotides into an acid-insoluble and alkali-resistant product was determined by using the precipitation-solubilization procedure as described by Battula and Loeb. All experiments were performed in triplicate and the averages were determined.
# In order to determine the effect of different metals on the accuracy of DNA replication, metal cations were added as chloride salts directly to the polymerase reaction. In these experiments, poly (A).oligo (dT) was the template-primer and the simultaneous incorporation of complementary nucleotide, [α-^32 P]-dTMP, and the non-complementery nucleotide, [^3 H]-dCMP, was determined.
# The effect of metal salts on the fidelity of DNA synthesis was examined by testing each of the metal salts at a minimum of seven different concentrations.
# [2] = test system: sea urchin nuclear DNA polymerase; assay: Fidelity of DNA synthesis with sea urchin nuclear DNA polymerase; format: biochemical; conditions: template poly (dA).oligo (dT)
# From the text: It is one of 15 carcinogens officially listed by the U.S. government as possibly being carcinogenic in humans.
# [3] = species as printed in the value; cited from earlier work
# [4] = test system: several DNA polymerases; format: biochemical; conditions: preliminary results
# Protocol: (§1) All known DNA polymerases require either Mg^2+ or Mn^2+ as an added divalent cation for activity. AMV DNA polymerase used Mg^2+ as an added divalent cation and the maximum rate of polymerization with poly (A).oligo (dT) was attained at 5 mM Mg^2+. […] Thymidine monophosphate incorporation with Be^2+ was less than 0.3% of that obtained with 5 mM Mg^2+.
# [5] = known status of the compound; cited from earlier work
# [6] = test system: AMV DNA polymerase; assay: Metal requirements for catalysis by AMV DNA polymerase; format: biochemical, avian myeloblastosis virus; conditions: poly (A).oligo (dT)
# Protocol: as §1
# [7] = 2 mM added cation + Mg^2+ 5 mM, poly (A).oligo (dT)
# [8] = 5 mM added cation + Mg^2+ 5 mM, poly (A).oligo (dT)
# [9] = 10 mM added cation + Mg^2+ 5 mM, poly (A).oligo (dT)
# [10] = Beryllium Chloride 1 mM, poly (A) . oligo (dT), non-complementary rGTP
# [11] = Beryllium Chloride 1 mM, poly (C) . oligo (dG), non-complementary dATP
# [12] = Beryllium Chloride 1 mM, poly d(A-T), non-complementary dCTP
# [13] = Beryllium Chloride 2 mM, poly (A) . oligo (dT), non-complementary rGTP
# [14] = Beryllium Chloride 2 mM, poly (C) . oligo (dG), non-complementary dATP
# [15] = Beryllium Chloride 3 mM, poly d(A-T), non-complementary dCTP
# [16] = Beryllium Chloride 4 mM, poly (C) . oligo (dG), non-complementary dATP
# [17] = Beryllium Chloride 5 mM, poly (A) . oligo (dT), non-complementary rGTP
# [18] = Beryllium Chloride 5 mM, poly (C) . oligo (dG), non-complementary dATP
# [19] = Beryllium Chloride 5 mM, poly d(A-T), non-complementary dCTP
# [20] = Beryllium Chloride 10 mM, poly (A) . oligo (dT), non-complementary rGTP
structure (smiles),measurement,setting,value
O=C1CCO1 [β-propiolactone],effect on the fidelity of DNA synthesis (in words),[1]; template poly (dA).oligo (dT),decreases the fidelity
same,effect on the fidelity of DNA synthesis (in words),[2],decreases the fidelity
same,carcinogenicity in animals,[3],"carcinogen in mice, rats and hamsters"
[Cl-].[Cl-].[Co+2] [CoCl2],Class,[1]; template poly (C).oligo (dG),1
same,Metal Concentration which yielded the largest observed change in error rate,[1]; template poly (C).oligo (dG),4 mM
same,effect on the fidelity of DNA synthesis (in words),[1]; various templates,alter the fidelity
same,metal activator function,[4],serve as metal activators with several DNA polymerases
same,Carcinogen or Mutagen,[5],+
"[Be+2].[Cl-].[Cl-] [BeCl2, beryllium chloride]",Complementary Nucleotide (pmoles dTMP),[1]; [7],291 pmol
same,Non-Complementary Nucleotide (pmoles dCMP),[1]; [7],0.372 pmol
same,Error Frequency,"[1]; 2 mM added cation + Mg^2+ 5 mM, poly (A).oligo (dT), dCMP/dTMP",1/782
same,Complementary Nucleotide (pmoles dTMP),[1]; [8],133 pmol
same,Non-Complementary Nucleotide (pmoles dCMP),[1]; [8],0.294 pmol
same,Error Frequency,"[1]; 5 mM added cation + Mg^2+ 5 mM, poly (A).oligo (dT), dCMP/dTMP",1/453
same,Complementary Nucleotide (pmoles dTMP),[1]; [9],8.6 pmol
same,Non-Complementary Nucleotide (pmoles dCMP),[1]; [9],0.114 pmol
same,Error Frequency,"[1]; 10 mM added cation + Mg^2+ 5 mM, poly (A).oligo (dT), dCMP/dTMP",1/75
same,Complementary Nucleotide Incorporation,[1]; [10],568 pmol
same,Error Frequency,[1]; [10],1/6104
same,Non-Complementary Nucleotide Incorporation,[1]; [10],0.093 pmol
same,Complementary Nucleotide Incorporation,[1]; [11],181 pmol
same,Error Frequency,[1]; [11],1/1649
same,Non-Complementary Nucleotide Incorporation,[1]; [11],0.110 pmol
same,Complementary Nucleotide Incorporation,[1]; [12],209 pmol
same,Error Frequency,[1]; [12],1/1306
same,Non-Complementary Nucleotide Incorporation,[1]; [12],0.160 pmol
same,Complementary Nucleotide Incorporation,[1]; [13],503 pmol
same,Error Frequency,[1]; [13],1/2704
same,Non-Complementary Nucleotide Incorporation,[1]; [13],0.186 pmol
same,Complementary Nucleotide Incorporation,[1]; [14],81 pmol
same,Error Frequency,[1]; [14],1/1025
same,Non-Complementary Nucleotide Incorporation,[1]; [14],0.079 pmol
same,Complementary Nucleotide Incorporation,[1]; [15],137 pmol
same,Error Frequency,[1]; [15],1/979
same,Non-Complementary Nucleotide Incorporation,[1]; [15],0.140 pmol
same,Complementary Nucleotide Incorporation,[1]; [16],57 pmol
same,Error Frequency,[1]; [16],1/919
same,Non-Complementary Nucleotide Incorporation,[1]; [16],0.062 pmol
same,Complementary Nucleotide Incorporation,[1]; [17],128 pmol
same,Error Frequency,[1]; [17],1/487
same,Non-Complementary Nucleotide Incorporation,[1]; [17],0.263 pmol
same,Complementary Nucleotide Incorporation,[1]; [18],64 pmol
same,Error Frequency,[1]; [18],1/831
same,Non-Complementary Nucleotide Incorporation,[1]; [18],0.077 pmol
same,Complementary Nucleotide Incorporation,[1]; [19],97 pmol
same,Error Frequency,[1]; [19],1/689
same,Non-Complementary Nucleotide Incorporation,[1]; [19],0.140 pmol
same,Complementary Nucleotide Incorporation,[1]; [20],52 pmol
same,Error Frequency,[1]; [20],1/149
same,Non-Complementary Nucleotide Incorporation,[1]; [20],0.349 pmol
same,Class,[1]; template poly (A).oligo (dT),1
same,effect on error frequency (in words),"[1]; poly (A).oligo (dT), dTMP complementary, dCMP non-complementary",error frequency increased
same,Metal Concentration which yielded the largest observed change in error rate,[1]; template poly (A).oligo (dT),10 mM
same,effect on the fidelity of DNA synthesis (in words),[1]; various templates,decreases the fidelity
same,Thymidine monophosphate incorporation relative to that obtained with 5 mM Mg^2+,"[6]; Be^2+ in the absence of Mg^2+, 60 min",less than 0.3%
same,ability to substitute for Mg^2+ as added divalent cation,"[6]; absence of Mg^2+, Be^2+ up to 15 mM",did not result in detectable poly (dT) synthesis
same,Carcinogen or Mutagen,[5],+
same,carcinogenicity in animals,[3],induces pulmonary carcinomas in monkey and osteogenic sarcomas in rabbits
[Cl][Ni][Cl] [NiCl2],Class,[1]; template poly (C).oligo (dG),1
same,Metal Concentration which yielded the largest observed change in error rate,[1]; template poly (C).oligo (dG),8 mM
same,effect on the fidelity of DNA synthesis (in words),[1]; various templates,alter the fidelity
same,metal activator function,[4],serve as metal activators with several DNA polymerases
